# What was measured:
# Type in all cases: in vivo
# Tetranychus urticae [1] = assay: Tetranychus test (OP-resistant/spray treatment); details: 100 g/ha; spray treatment; bean leaf discs
# Description: Tetranychus Test (OP-Resistant/Spray Treatment)
# To produce a suitable preparation of active compound, 1 part by weight of active compound is mixed with the stated amounts of solvents and emulsifier, and the concentrate is diluted with emulsifier-containing water to the desired concentration.
# Discs of bean leaves (Phaseolus vulgaris) which are infested by all stages of the greenhouse red spider mite (Tetranychus urticae) are sprayed with a preparation of active compound of the desired concentration.
# (§1) After the desired period of time, the activity in % is determined. 100% means that all spider mites have been killed; 0% means that none of the spider mites have been killed.
# Tetranychus urticae [2] = assay: Tetranychus test (OP-resistant/dip treatment); details: 4 ppm; dip treatment; bean plants (Table B)
# Description: Tetranychus Test (OP-Resistant/Dip Treatment)
# (§2) To produce a suitable preparation of active compound, 1 part by weight of active compound is mixed with the stated amounts of solvent and emulsifier, and the concentrate is diluted with emulsifier-containing water to the desired concentration.
# Bean plants (Phaseolus vulgaris), which are heavily infested by all stages of the greenhouse red spider mite (Tetranychus urticae), are dipped into a preparation of active compound of the desired concentration.
# as §1
# Lolium [3] = assay: Herbicidal pre-emergence action (Example L); details: greenhouse, 320 g of a.i./ha, 3 weeks
# Excerpt: (§3) Herbicidal Pre-Emergence Action
# (§4) Seeds of monocotyledonous and dicotyledonous weed and crop plants are placed into sandy loam in wood fibre pots and covered with soil. The test compounds, formulated in the form of wettable powders (WP), are then, in various dosages as aqueous suspension with a water application rate of 600 l/ha (converted), with 0.2% of wetting agent added, applied to the surface of the covering soil.
# (§5) After the treatment, the pots are placed in a greenhouse and kept under good growth conditions for the test plants. The visual assessment of the emergence damage on the test plants is carried out after a trial period of 3 weeks by comparison with untreated controls (herbicidal effect in percent (%): 100% effect=the plants have died, 0% effect=like control plants).
# Setaria [4] = assay: Herbicidal pre-emergence action (Example L); details: greenhouse, 320 g of a.i./ha, 3 weeks
# Excerpt: as §3, §4, §5
# Amaranthus = assay: Herbicidal pre-emergence action (Example L); details: greenhouse, 320 g of a.i./ha, 3 weeks
# Excerpt: as §3, §4, §5
# summer wheat = assay: Herbicidal post-emergence action, vessel trials with cereals in the greenhouse, use of safeners (Example N); details: without safener
# Description: (§6) Herbicidal Post-Emergence Action
# (§7) Seeds of monocotyledonous and dicotyledonous weed and crop plants are placed into sandy loam in wood fibre pots or in plastic pots, covered with soil and cultivated in a greenhouse, during the vegetation period also outdoors outside of the greenhouse, under good growth conditions. 2-3 weeks after sowing, the test plants are treated at the one- to three-leaf stage. The test compounds, formulated as wettable powders (WP) or emulsifiable concentrates (EC) are, in various dosages with a water application rate of 300 l/ha (converted), with wetting agent (0.2 to 0.3%) added, sprayed onto the plants and the surface of the soil. 3-4 weeks after the treatment of the test plants, the effect of the preparations is rated visually in comparison to untreated controls (herbicidal effect in percent (%): 100% effect=the plants have died, 0% effect=like control plants).
# (§8) If it is additionally to be tested as to whether safeners can improve the plant compatibility of test substances in the case of crop plants, the following options are used for applying the safener: • seeds of the crop plants are, before sowing, dressed with the safener substance (the amount of safener is stated in percent, based on the weight of the seed) • before the application of the test substances, the crop plants are sprayed with the safener at a certain application rate per hectare (usually 1 day before the application of the test substances) • the safener is applied together with the test substance as a tank mix (the amount of safener is stated in g/ha or as a ratio, based on the herbicide).
# (§9) By comparing the effect of the test substances on crop plants without or with safener treatment, it is possible to assess the effect of the safener substance.
# (§10) Vessel Trials with Cereals in the Greenhouse
# (§11) Mefenpyr applied 1 day prior to the application of herbicide
# summer barley = assay: as above; details: without safener
# Description: as §6, §7, §8, §9, §10, §11
# Lolium [5] = assay: Herbicidal post-emergence action (Example M); details: greenhouse, 320 g of a.i./ha, about 3 weeks
# Description: as §6
# (§12) Seeds of monocotyledonous and dicotyledonous weed and crop plants are placed into sandy loam in wood fibre pots, covered with soil and cultivated in a greenhouse under good growth conditions. 2-3 weeks after sowing, the test plants are treated at the one-leaf stage. The test compounds, formulated as wettable powders (WP), are, in various dosages with a water application rate of 600 l/ha (converted), with 0.2% of wetting agent added, sprayed onto the green parts of the plants. After the test plants were kept in the greenhouse under optimum growth conditions for about 3 weeks, the effect of the preparations is rated visually in comparison to untreated controls (herbicidal effect in percent (%): 100% effect=the plants have died, 0% effect=like control plants).
# Sinapis [6] = assay: Herbicidal post-emergence action (Example M); details: greenhouse, 320 g of a.i./ha, about 3 weeks
# Description: as §6, §12
# Setaria [7] = assay: Herbicidal post-emergence action (Example M); details: greenhouse, 320 g of a.i./ha, about 3 weeks
# Description: as §6, §12
# Avena sativa = assay: Herbicidal post-emergence action (Example M); details: greenhouse, 320 g of a.i./ha, about 3 weeks
# Description: as §6, §12
# Phaedon cochleariae = assay: Phaedon test (spray treatment); details: 100 g/ha, Chinese cabbage discs
# Description: Phaedon Test (Spray Treatment) [table] To produce a suitable preparation of active compound, 1 part by weight of active compound is mixed with the stated amounts of solvents and emulsifier, and the concentrate is diluted with emulsifier-containing water to the desired concentration. Discs of Chinese cabbage (Brassica pekinensis) are sprayed with a preparation of active compound of the desired concentration and, after they have dried, populated with larvae of the mustard beetle (Phaedon cochleariae).
# Myzus persicae = assay: Myzus test (spray treatment); details: 100 g/ha, Chinese cabbage discs
# Description: Myzus Test (Spray Treatment)
# as §2
# Discs of Chinese cabbage (Brassica pekinensis), which are infested by all stages of the green peach aphid (Myzus persicae), are sprayed with a preparation of active compound of the desired concentration.
# After the desired period of time, the effect in % is determined. 100% means that all aphids have been killed; 0% means that none of the aphids have been killed.
# Sinapis [8] = assay: Herbicidal pre-emergence action (Example L); details: greenhouse, 320 g of a.i./ha, 3 weeks
# Excerpt: as §3, §4, §5
# Stellaria = assay: Herbicidal pre-emergence action (Example L); details: greenhouse, 320 g of a.i./ha, 3 weeks
# Excerpt: as §3, §4, §5
Compound,Kill rate in % after 5d (Tetranychus urticae [1]) [%],Kill rate in % after 7d (Tetranychus urticae [2]) [%],"herbicidal effect in percent, Lolium (Lolium [3]) [%]","herbicidal effect in percent, Setaria (Setaria [4]) [%]","herbicidal effect in percent, Amaranthus (Amaranthus) [%]",summer wheat observed (%) (summer wheat; 25 g of a.i./ha),summer barley observed (%) (summer barley; 25 g of a.i./ha),summer barley observed (%) (summer barley; 50 g of a.i./ha),summer barley observed (%) (summer barley; 100 g of a.i./ha),"herbicidal effect in percent, Lolium (Lolium [5]) [%]","herbicidal effect in percent, Sinapis (Sinapis [6]) [%]","herbicidal effect in percent, Setaria (Setaria [7]) [%]","herbicidal effect in percent, Avena sativa (Avena sativa) [%]",Kill rate in % after 7d (Phaedon cochleariae) [%],Kill rate in % after 5d (Myzus persicae) [%],"herbicidal effect in percent, Sinapis (Sinapis [8]) [%]",summer barley observed (%) (summer barley; 12.5 g of a.i./ha),"herbicidal effect in percent, Stellaria (Stellaria) [%]",summer wheat observed (%) (summer wheat; 12.5 g of a.i./ha),summer wheat observed (%) (summer wheat; 50 g of a.i./ha)
"CCc1cc(C)cc(Br)c1C1=C(O)C2(CCC(OC)CC2)NC1=O (single isomer, unassigned) [Example I-a-3]",90,50,80,100,80,60,20,90,95,100,80,100,100,100,100,,,,,
"CCc1cc(C)cc(Br)c1C1=C(OC(=O)COC)C2(CCC(OC)CC2)NC1=O (single isomer, unassigned) [Example I-b-5]",70,,100,90,,,65,98,,100,70,100,100,,80,80,35,,,
"CCOC(=O)OC1=C(c2c(Cl)cc(C)cc2CC)C(=O)NC12CCC(OC)CC2 (single isomer, unassigned) [Example I-c-4]",,,80,90,,,70,,,100,80,100,100,,,70,20,80,60,
"CCOC(=O)OC1=C(c2c(Br)cc(C)cc2CC)C(=O)NC12CCC(OC)CC2 (single isomer, unassigned) [I-c-3]",80,,100,100,100,,,,,100,70,100,100,,80,,,,,
CCc1cc(C)cc(Br)c1C1=C(OC(=O)COC)C2(CCCCC2)NC1=O [Example I-b-2],,,,,,70,,,,100,,100,90,,,,,,20,98
CCc1cc(C)cc(Br)c1C1=C(OC(=O)C(C)C)C2(CCCCC2)NC1=O [Example I-b-3],,,,,,20,,,,90,,100,100,,,,,,10,75
CCc1cc(C)cc(Br)c1C1=C(O)C2(CCCCC2)NC1=O [I-a-2],,,,,,,,,,90,,100,80,,,,,,,
CCc1cc(C)cc(Br)c1C1=C(OC(=O)C(C)(C)C)C2(CCCCC2)NC1=O [I-b-4],,,,,,,,,,90,,90,80,,,,,,,
CCOC(=O)OC1=C(c2c(Br)cc(C)cc2CC)C(=O)NC12CCCCC2 [I-c-2],,,,,,,,,,90,,80,90,,,,,,,

# — US20070129252A1, “2-Halo-6-alkylphenyl-substituted spirocyclic tetramic acid derivatives” (BAYER CROPSCIENCE AKTIENGESELLSCHAFT, priority 2003, published 2007)
